Assay results as given in patent US6011008A, “Conjugates of biologically active substances” (priority 1998, dated 2000).

Key:
[1] = In vitro release (dialysis tubing method); format: physicochemical; conditions: for drug released from the dialysis tube: after 5 hours, buffer pH 7.4, 37° C.; for release of the conjugated drug: after 24 hours, buffer pH 7.4 at 37° C.
Method: A solution of the Schiff base or the amine conjugates (100 mg in 5 ml phosphate buffer pH7.4) was placed into a cellulose dialysis tubing of 12,000 MW cut off and the bag was placed into a 100 ml. buffer solution at 37° C. The drug release to the solution was monitored by UV absorption at 280 nm, unless otherwise indicated.
The release of DOX from the AG conjugates was determined using dialysis tubing as described above. The DOX-AG imine conjugate, the DOX-AG amine conjugate and a solution of the native drug were studied. The amount of DOX found in the solution was 2, 5, 8, 10 and 12% of the total dose after 2, 4, 7, 12 and 32 hours, respectively.
The Mitomycin release into the solution was measured as described above. The amount of drug found in the solution was 1, 2, 4, 5 and 8% of the total dose after 2, 4, 7, 12 and 32 hours, respectively.
In vitro release of Somatostatin was determined as described in the Methods and the somatostatin concentration was determined by the Folin-Lowry method for peptide analysis^(10).
Insulin was conjugated to oxidized AG (50 mg with 100 mg pure oxidized AG) using the method described above for somatostatin. The conjugation yield was about 75% as determined by nitrogen analysis and the Folin-Lowry method. The Schiff base derivative released about 25% of its drug content after 24 hours in phosphate buffer solution at […].

Escherichia coli = Escherichia coli agar plates, after 24 hours of incubation
Method: The antimicrobial activity of the conjugates was assayed by a cup method^(9) (agar plate method) using Escherichia coli agar plates and measuring the zone of growth inhibition.

Staphylococcus Aureus = assay: Antimicrobial activity, filter paper on seeded agar plate; format: cell-based; conditions: Staphylococcus Aureus (10^5 /ml), 24 hours at 37° C., 6 mm filter paper, equivalent amounts of the drug
Method: (§1) The antimicrobial activity of these conjugates was determined as described above. Saline solutions of equivalent amounts of the drug in free form or the imine or amine AG conjugates were absorbed onto a circular filter paper (6 mm in diameter) and placed on a seeded agar plate with Staphylococcus Aureus (10^5 /ml) and E. Coli incubated for 24 hours at 37° C. […] Similar results were obtained for the Polymyxin derivatives.

E. Coli = assay: as above; format: cell-based; conditions: 24 hours at 37° C., 6 mm filter paper, equivalent amounts of the drug
Method: as §1

Compound: COc1cccc2c1C(=O)c1c(O)c3c(c(O)c1C2=O)C[C@@](O)(C(=O)CO)C[C@@H]3O[C@H]1C[C@H](N)[C@H](O)[C@H](C)O1 [DOX, Doxorubicin]
- drug released from the dialysis tube [1]: 90%

Compound: CO[C@@]12[C@H](COC(N)=O)C3=C(C(=O)C(C)=C(N)C3=O)N1C[C@@H]1N[C@@H]12 [Mitomycin C]
- inhibition zone (Escherichia coli): > 10 mm

Compound: Insulin-AG Schiff base derivative: Insulin conjugated to pure oxidized AG, Schiff base
- release of drug content ([1]; after 24 hours in phosphate buffer solution at […].): about 25%

Compound: Somatostatin-AG imine conjugate: Somatostatin conjugated to pure oxidized AG via imine bond
- drug released from the dialysis tube [1]: about 5%
- release of the conjugated drug [1]: ~18%

Compound: NC[C@H]1O[C@H](O[C@H]2[C@H](O)[C@@H](O[C@H]3O[C@H](CO)[C@@H](O)[C@H](N)[C@H]3O)[C@H](N)C[C@@H]2N)[C@H](N)C[C@@H]1O [tobramicin]
- inhibition zone (Staphylococcus Aureus): > 10 mm
- inhibition zone (E. Coli): > 10 mm

Compound: gentamicin
- inhibition zone (Staphylococcus Aureus): > 10 mm
- inhibition zone (E. Coli): > 10 mm

Compound: Somatostatin-AG amine conjugate: Somatostatin-AG Schiff base hydrogenated to the amine conjugate using NaBH4
- release of the conjugated drug [1]: did not release any
